Source: patent publication US10357036B2, “Compounds for controlling arthropods” (priority 2015, dated 2019)

Columns and labels:
[1] = system: Spodoptera frugiperda; assay: Spodoptera frugiperda spray test; format: in vivo; conditions: 100 g/ha; after 7 days
[2] = system: Tetranychus urticae; assay: Tetranychus urticae spray test, OP-resistant (bean leaf discs); format: in vivo; conditions: 100 g/ha; after 6 days
Protocol: (§1) After 6 days, the efficacy in % is determined.

[3] = system: Amaranthus retroflexus (AMARE); assay: Herbicidal activity, pre-emergence; format: in vivo; conditions: 1280 g/ha, 3 weeks
From the text: (§2) Seeds of monocotyledonous and dicotyledonous weed plants and crop plants were placed in wood-fibre pots in sandy loam and covered with soil. The compounds according to the invention, formulated as emulsion concentrates (EC), were then applied to the surface of the covering soil as an emulsion at a water application rate equating to 600 to 800 Uha with addition of 0.2% wetting agent.
(§3) After the treatment, the pots were placed in a greenhouse and kept under good growth conditions for the test plants. The damage to the test plants was scored visually after a test period of 3 weeks by comparison with untreated controls (herbicidal activity in percent (%): 100% activity=the plants have died, 0% activity=like control plants). Here, for example, compounds No. Ia-17, Ia-37, Ia-28 and Ia-56 at an application rate of 1280 g/ha each show 100% efficacy against Amaranthus retroflexus (AMARE) and with the exception of Ia-56, even against Viola tricolor (VIOTR). Furthermore, compounds no. Ia-17, Ia-37 and Ia-28 at the same application rate show an 80% or better efficacy against Matricaria inodorae (MATIN) and Ia-17 and Ia-37 even against Stellaria media (STEME).

[4] = system: Viola tricolor (VIOTR); assay: Herbicidal activity, pre-emergence; format: in vivo; conditions: 1280 g/ha, 3 weeks
From the text: as §2, §3

[5] = system: Boophilus microplus; assay: Boophilus microplus injection test; format: in vivo; conditions: 20 μg/animal; assessed after 7 days
Protocol: (§4) • Solvent: dimethyl sulfoxide
1 μl of the active ingredient solution is injected into the abdomen of 5 engorged adult female cattle ticks (Boophilus microplus). The animals are transferred into dishes and kept in a climate-controlled room.

[6] = system: Musca domestica; assay: Musca domestica test; format: in vivo; conditions: 100 ppm; adult houseflies; after 2 days
Protocol: as §4
(§5) To produce a suitable active ingredient formulation, 10 mg of active ingredient are mixed with 0.5 ml of dimethyl sulfoxide, and the concentrate is diluted with water to the desired concentration.
Vessels containing a sponge treated with sugar solution and the active ingredient formulation of the desired concentration are populated with 10 adult houseflies (Musca domestica).

[7] = system: Phaedon cochleariae; assay: Phaedon cochleariae spray test; conditions: 100 g/ha; after 7 days
[8] = system: Rhipicephalus sanguineus; assay: Rhipicephalus sanguineus in vitro contact test with adult brown dog ticks; format: in vivo; conditions: application rate 5 μg/cm^2 (=500 g/ha); after 48 h; dead or moribund ticks
Outline: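 Adult Rhipicephalus sanguineus (5-10 per tube) held in glass tubes coated with compound from acetone solution, 900 ppm giving 5 μg/cm^2, in the dark at room temperature. After 48 h ticks put on a 45-50° C hotplate up to 5 min; motionless or uncoordinated ticks scored dead/moribund as % efficacy.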

[9] = system: Ctenocephalides felis; assay: Ctenocephalides felis oral test; format: in vivo; conditions: 100 ppm in citrated cattle blood; after 2 days
[10] = system: cattle ticks (Boophilus microplus) Parkhurst strain, SP-resistant; assay: Boophilus microplus dip test; format: in vivo; conditions: 100 ppm; assessed after 7 days
Outline: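 Engorged adult female ticks (8-10 per tube) fully immersed in compound from DMSO stock diluted with water to test concentration, then held in a climate-controlled room. Efficacy scored after 7 days from fertile egg laying, with eggs kept until hatching at about 42 days. 100% means no fertile eggs laid.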

[11] = system: Amblyomma hebraeum; assay: Amblyomma hebraeum test (tick nymphs, immersion); format: in vivo; conditions: 100 ppm; after 42 days
Protocol: as §4, §5
Tick nymphs (Amblyomma hebraeum) are placed into perforated plastic beakers and immersed in the desired concentration for one minute. The ticks are transferred on filter paper into a Petri dish and stored in a climate-controlled cabinet.

[12] = system: Ctenocephalides felis; assay: Ctenocephalides felis in vitro contact test with adult cat fleas; format: in vivo; conditions: application rate 5 μg/cm^2 (=500 g/ha); after 48 h; dead or moribund fleas
Outline: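 Glass tubes were coated with compound in acetone (900 ppm solution gives 5 μg/cm²), dried, then loaded with 5–10 adult cat fleas. Held horizontal at room temperature and ambient humidity for 48 h. Efficacy is the % of fleas dead or moribund (motionless or uncoordinated after knock-down).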

[13] = system: Myzus persicae; assay: Myzus persicae spray test (Chinese cabbage leaf discs); format: in vivo; conditions: 100 g/ha; after 6 days
Protocol: as §1

[14] = system: Myzus persicae; assay: Myzus persicae spray test (bell pepper plants); format: in vivo; conditions: 4 ppm; after 6 days
Protocol: To produce further test concentrations, the latter is diluted with emulsifier-containing water. When addition of ammonium salts and/or penetrants is required, these are each added at a concentration of 1000 ppm to the preparation solution.
Bell pepper plants (Capsicum annuum), which are heavily infested by the green peach aphid (Myzus persicae), are treated by being sprayed with the active compound preparation at the desired concentration.
After 6 days, the kill in % is determined.

[15] = system: Stellaria meida (STEME); assay: Herbicidal activity, post-emergence; format: in vivo; conditions: 1280 g/ha, 3 weeks
Protocol: (§6) Seeds of monocotyledonous and dicotyledonous weeds and crop plants were placed in sandy loam in wood-fibre pots, covered with soil and cultivated in a greenhouse under good growth conditions. 2 to 3 weeks after sowing, the test plants are treated at the one-leaf stage. The compounds according to the invention, formulated as emulsion concentrates (EC), were then sprayed onto the green plant parts as an emulsion at a water application rate equating to 600 to 800 Uha with addition of 0.2% wetting agent. After the test plants have been left to stand in the greenhouse under optimal growth conditions for 3 weeks, the efficacy of the preparations was assessed visually in comparison to untreated controls (herbicidal efficacy in percent (%): 100% activity=the plants have died, 0% activity=like control plants). For example, compounds No. Ia-17, Ia-28 and Ia-37 at an application rate of 1280 g/ha each show at least 100% efficacy against Amaranthus retroflexus (AMARE) and Viola tricolor (VOTR).

[16] = system: Matricaria inodora (MATIN); assay: Herbicidal activity, post-emergence; format: in vivo; conditions: 1280 g/ha, 3 weeks
Protocol: as §6

[17] = system: Abutilon theophrasti (ABUTH); assay: Herbicidal activity, post-emergence; format: in vivo; conditions: 1280 g/ha, 3 weeks
Protocol: as §6

**Q.** For `CC(=O)NCc1cccc(-c2cnn(-c3c(C)cc(C(F)(C(F)(F)F)C(F)(F)F)cc3C)c2)c1` [Ia-37], which efficacy [1] is on record?
**A.** 83%

**Q.** What about the efficacy [2] of the same compound?
**A.** 100%

**Q.** What about the herbicidal efficacy [3] of the same compound?
**A.** 100%

**Q.** And the herbicidal efficacy [4]?
**A.** 100%

**Q.** What about the “efficacy (laying of fertile eggs)” value [5] of the same compound?
**A.** 100%

**Q.** And the “efficacy (rate of extermination)” value [6]?
**A.** 100%

**Q.** What about the efficacy [7] of the same compound?
**A.** 100%

**Q.** And the efficacy [8]?
**A.** 80%

**Q.** What about the “efficacy (rate of extermination)” value [9] of the same compound?
**A.** 100%

**Q.** `CC(=O)NCc1cc(-c2cnn(-c3c(C)cc(C(F)(C(F)(F)F)C(F)(F)F)cc3C)c2)ccc1F` [Ia-13] was tested. Which efficacy [1] did it give?
**A.** 100%

**Q.** What about the “efficacy (laying of fertile eggs)” value [10] of the same compound?
**A.** 100%

**Q.** And the “efficacy (rate of extermination)” value [11]?
**A.** 100%

**Q.** And the efficacy [2]?
**A.** 100%

**Q.** What about the “efficacy (laying of fertile eggs)” value [5] of the same compound?
**A.** 100%

**Q.** And the “efficacy (rate of extermination)” value [6]?
**A.** 100%

**Q.** And the efficacy [7]?
**A.** 100%

**Q.** What about the efficacy [8] of the same compound?
**A.** 100%

**Q.** What about the “efficacy (rate of extermination)” value [9] of the same compound?
**A.** 100%

**Q.** And the efficacy [12]?
**A.** 100%

**Q.** What about the efficacy [13] of the same compound?
**A.** 100%

**Q.** How did the efficacy [1] turn out when `CCC(=O)NCc1cccc(-c2cnn(-c3c(C)cc(C(F)(C(F)(F)F)C(F)(F)F)cc3C)c2)c1` [Ia-28] was run?
**A.** 100%

**Q.** And the “efficacy (laying of fertile eggs)” value [10]?
**A.** 80%

**Q.** And the efficacy [2]?
**A.** 100%

**Q.** And the herbicidal efficacy [3]?
**A.** 100%

**Q.** And the herbicidal efficacy [4]?
**A.** 100%

**Q.** What about the “efficacy (laying of fertile eggs)” value [5] of the same compound?
**A.** 100%

**Q.** What about the “efficacy (rate of extermination)” value [6] of the same compound?
**A.** 100%

**Q.** What about the efficacy [7] of the same compound?
**A.** 100%

**Q.** What about the efficacy [8] of the same compound?
**A.** 80%

**Q.** And the “efficacy (rate of extermination)” value [9]?
**A.** 100%

**Q.** What does the source list for `CC(=O)NCc1cc(-c2cnn(-c3c(C)cc(C(F)(C(F)(F)F)C(F)(F)F)cc3C)c2)ccc1Cl` [Ia-95]?
**A.** efficacy [1]: 100%; efficacy (laying of fertile eggs) [10]: 100%; efficacy [2]: 100%; efficacy (laying of fertile eggs) [5]: 100%; efficacy (rate of extermination) [6]: 100%; efficacy [7]: 100%; efficacy [8]: 80%; efficacy (rate of extermination) [9]: 100%; efficacy [12]: 100%; efficacy (kill) [14]: 85%

**Q.** What does the source list for `CC(=O)NCc1cccc(-c2cnn(-c3c(Cl)cc(C(F)(C(F)(F)F)C(F)(F)F)cc3[S+](C)[O-])c2)c1` (centres unmarked) [Ia-17]?
**A.** herbicidal efficacy [3]: 100%; herbicidal efficacy [4]: 100%; herbicidal efficacy [15]: ≥ 80%; herbicidal efficacy [16]: ≥ 80%; herbicidal efficacy [17]: ≥ 80%

**Q.** Which efficacy [1] does the source give for `CCC(=O)NCc1cc(-c2cnn(-c3c(C)cc(C(F)(C(F)(F)F)C(F)(F)F)cc3C)c2)ccc1F` [Ia-01] here?
**A.** 100%

**Q.** What about the “efficacy (laying of fertile eggs)” value [10] of the same compound?
**A.** 100%

**Q.** And the “efficacy (rate of extermination)” value [11]?
**A.** 100%

**Q.** And the efficacy [2]?
**A.** 100%

**Q.** And the “efficacy (laying of fertile eggs)” value [5]?
**A.** 100%

**Q.** And the “efficacy (rate of extermination)” value [6]?
**A.** 100%

**Q.** And the efficacy [7]?
**A.** 100%

**Q.** And the efficacy [8]?
**A.** 100%

**Q.** And the “efficacy (rate of extermination)” value [9]?
**A.** 100%

**Q.** What about the efficacy [12] of the same compound?
**A.** 100%

**Q.** And the efficacy [13]?
**A.** 100%
